# Experimental data published in publication PMC5217372, “Activation of SsoPK4, an Archaeal eIF2α Kinase Homolog, by Oxidized CoA” (Proteomes, 2015).
# Test system: rSsoPK4(284–635)
# Assay: Protein kinase activity assay (filter paper method, [γ-32P]ATP, 65 °C) of rSsoPK4(284–635)
# Type: biochemical, Sulfolobus solfataricus
# Settings: for perturbed the activity of rSsoPK4: compound at 100 µM; for Inhibitor: effector at 100 µM, MBP as phosphoacceptor substrate
# Method: Protein kinase activity was routinely assayed by the filter paper method of Corbin and Reimann as modified by Lower and Kennelly. The final volume of the assays was typically 50 μL. The quantity of rSsoPK4 assayed ranged from 0.1 to 5.0 µg. Both MgCl2 and MnCl2 were included at a final concentration of 5 mM each. The final concentration of [γ-^32P]ATP was 100 μM. The specific activity of the [γ-^32P]ATP generally ranged from 2 to 5 × 10^15 cpm/mol. Phosphoacceptor proteins were generally present at a concentration of 0.5–1.0 µg/µL. The assay mixture was typically incubated for a period of 30 min to one hour at 65 °C in 50 mM MOPS pH 7.0. On occasion, the proteins within the assay mixture were resolved by SDS-PAGE in order to identify the specific polypeptides that were phosphorylated. Radiolabeled species were visualized using an Instant Imager from Packard (Downers Grove, IL, USA).
perturbed the activity of rSsoPK4,Compound,Inhibitor,"effect on protein kinase activity toward MBP (MBP substrate, compounds at 1 mM (Figure 8))"
perturbed the activity,"Nc1ncnc2c1ncn2[C@@H]1O[C@H](CO)[C@H]2OP(=O)(O)O[C@H]21 [2ʹ,3ʹ-cAMP]","Y (designated as inhibitors (Y) if they were observed to stimulate or reduce, respectively, catalytic activity by greater than 20% relative to controls lacking added effectors)",–
perturbed the activity,Nc1ncnc2c1ncn2[C@@H]1O[C@H](CO)[C@@H](OP(=O)(O)O)[C@H]1O [3ʹ-AMP],"Y (designated as inhibitors (Y) if they were observed to stimulate or reduce, respectively, catalytic activity by greater than 20% relative to controls lacking added effectors)",–
perturbed the activity,"Nc1ncnc2c1ncn2[C@@H]1O[C@H](COP(=O)(O)O)[C@@H](O)[C@H]1O [5'AMP, 5ʹ-AMP]","Y (designated as inhibitors (Y) if they were observed to stimulate or reduce, respectively, catalytic activity by greater than 20% relative to controls lacking added effectors)",–
–,Nc1ccn([C@@H]2O[C@H](COP(=O)(O)O)[C@@H](O)[C@H]2O)c(=O)n1 [5ʹ-CMP],"N (Where a change of ±20% or less in enzyme activity was observed, the compound was designated as non-inhibitory (N))",–
–,Nc1nc2c(ncn2[C@@H]2O[C@H](COP(=O)(O)O)[C@@H](O)[C@H]2O)c(=O)[nH]1 [5ʹ-GMP],"N (Where a change of ±20% or less in enzyme activity was observed, the compound was designated as non-inhibitory (N))",–
–,O=c1ccn([C@@H]2O[C@H](COP(=O)(O)O)[C@@H](O)[C@H]2O)c(=O)[nH]1 [5ʹ-UMP],"N (Where a change of ±20% or less in enzyme activity was observed, the compound was designated as non-inhibitory (N))",–
–,Nc1ncnc2c1ncn2[C@H]1C[C@H](O)[C@@H](COP(=O)(O)O)O1 [5ʹ-dAMP],"N (Where a change of ±20% or less in enzyme activity was observed, the compound was designated as non-inhibitory (N))",–
perturbed the activity,Nc1ncnc2c1ncn2[C@@H]1O[C@H](COP(=O)(O)OP(=O)(O)O)[C@@H](O)[C@H]1O [ADP],"Y (designated as inhibitors (Y) if they were observed to stimulate or reduce, respectively, catalytic activity by greater than 20% relative to controls lacking added effectors)",–
–,CC(=O)SCCNC(=O)CCNC(=O)[C@H](O)C(C)(C)COP(=O)(O)OP(=O)(O)OC[C@H]1O[C@@H](n2cnc3c(N)ncnc32)[C@H](O)[C@@H]1OP(=O)(O)O [Acetyl-CoA],"N (Where a change of ±20% or less in enzyme activity was observed, the compound was designated as non-inhibitory (N))",–
perturbed the activity,Nc1ncnc2c1ncn2[C@@H]1O[C@H](COP(=O)(O)OS(=O)(=O)O)[C@@H](O)[C@H]1O [Adenosine phosphosulfate],"Y (designated as inhibitors (Y) if they were observed to stimulate or reduce, respectively, catalytic activity by greater than 20% relative to controls lacking added effectors)",–
–,"CC(C)(COP(=O)(O)OP(=O)(O)OC[C@H]1O[C@@H](n2cnc3c(N)ncnc32)[C@H](O)[C@@H]1OP(=O)(O)O)[C@@H](O)C(=O)NCCC(=O)NCCS [CoASH, reduced CoA]","N (Where a change of ±20% or less in enzyme activity was observed, the compound was designated as non-inhibitory (N))",–
–,Cc1cc2nc3c(=O)[nH]c(=O)nc-3n(C[C@H](O)[C@H](O)[C@H](O)COP(=O)(O)OP(=O)(O)OC[C@H]3O[C@@H](n4cnc5c(N)ncnc54)[C@H](O)[C@@H]3O)c2cc1C [FAD^+],"N (Where a change of ±20% or less in enzyme activity was observed, the compound was designated as non-inhibitory (N))",–
–,Nc1nc2c(ncn2[C@@H]2O[C@H](COP(=O)(O)OP(=O)(O)OP(=O)(O)O)[C@@H](O)[C@H]2O)c(=O)[nH]1 [GTP],"N (Where a change of ±20% or less in enzyme activity was observed, the compound was designated as non-inhibitory (N))",–
–,NC(=O)C1=CN([C@@H]2O[C@H](COP(=O)(O)OP(=O)(O)OC[C@H]3O[C@@H](n4cnc5c(N)ncnc54)[C@H](O)[C@@H]3O)[C@@H](O)[C@H]2O)C=CC1 [NADH],"N (Where a change of ±20% or less in enzyme activity was observed, the compound was designated as non-inhibitory (N))",–
–,NC(=O)C1=CN([C@@H]2O[C@H](COP(=O)(O)OP(=O)(O)OC[C@H]3O[C@@H](n4cnc5c(N)ncnc54)[C@H](OP(=O)(O)O)[C@@H]3O)[C@@H](O)[C@H]2O)C=CC1 [NADPH],"N (Where a change of ±20% or less in enzyme activity was observed, the compound was designated as non-inhibitory (N))",–
–,NC(=O)c1ccc[n+]([C@@H]2O[C@H](COP(=O)([O-])OP(=O)(O)OC[C@H]3O[C@@H](n4cnc5c(N)ncnc54)[C@H](OP(=O)(O)O)[C@@H]3O)[C@@H](O)[C@H]2O)c1 [NADP^+],"N (Where a change of ±20% or less in enzyme activity was observed, the compound was designated as non-inhibitory (N))",–
–,NC(=O)c1ccc[n+]([C@@H]2O[C@H](COP(=O)([O-])OP(=O)(O)OC[C@H]3O[C@@H](n4cnc5c(N)ncnc54)[C@H](O)[C@@H]3O)[C@@H](O)[C@H]2O)c1 [NAD^+],"N (Where a change of ±20% or less in enzyme activity was observed, the compound was designated as non-inhibitory (N))",–
–,Nc1ncnc2c1ncn2[C@@H]1O[C@H](COP(=O)(O)OS(=O)(=O)O)[C@@H](OP(=O)(O)O)[C@H]1O [Phosphoadenosine phosphosulfate],"N (Where a change of ±20% or less in enzyme activity was observed, the compound was designated as non-inhibitory (N))",–
–,C[S+](CC[C@H](N)C(=O)[O-])C[C@H]1O[C@@H](n2cnc3c(N)ncnc32)[C@H](O)[C@@H]1O (stereo partly drawn) [S-Adenosyl-Methionine],"N (Where a change of ±20% or less in enzyme activity was observed, the compound was designated as non-inhibitory (N))",–
–,Nc1ncnc2c1ncn2[C@@H]1O[C@H](CSCC[C@H](N)C(=O)O)[C@@H](O)[C@H]1O [S-Adenosyl-homocysteine],"N (Where a change of ±20% or less in enzyme activity was observed, the compound was designated as non-inhibitory (N))",–
–,Cc1ncc(C[n+]2csc(CCOP(=O)(O)OP(=O)(O)O)c2C)c(N)n1 [Thiamine-PPi],"N (Where a change of ±20% or less in enzyme activity was observed, the compound was designated as non-inhibitory (N))",–
–,Oxidized glutathione,–,no effect
